Assay results: ChEMBL document CHEMBL4184315, “Discovery of Inhibitor of Wnt Production 2 (IWP-2) and Related Compounds As Selective ATP-Competitive Inhibitors of Casein Kinase 1 (CK1) δ/ε” (J Med Chem, 2018)
pEC50, pIC50: −log10 of the molar value. Calls of active or inactive are those of the source. The rule behind the calls is not given here.

Tests used:
[1] = target: T1, Casein kinase I isoform alpha (Bos taurus) (UniProt P67827); experiment: Inhibition of bovine GST-tagged CK1alpha at 1 uM using alpha-casein as substrate after 30 mins in presence of [gamma-32P]-ATP by Cherenkov counting method
T1 sequence (whole entry): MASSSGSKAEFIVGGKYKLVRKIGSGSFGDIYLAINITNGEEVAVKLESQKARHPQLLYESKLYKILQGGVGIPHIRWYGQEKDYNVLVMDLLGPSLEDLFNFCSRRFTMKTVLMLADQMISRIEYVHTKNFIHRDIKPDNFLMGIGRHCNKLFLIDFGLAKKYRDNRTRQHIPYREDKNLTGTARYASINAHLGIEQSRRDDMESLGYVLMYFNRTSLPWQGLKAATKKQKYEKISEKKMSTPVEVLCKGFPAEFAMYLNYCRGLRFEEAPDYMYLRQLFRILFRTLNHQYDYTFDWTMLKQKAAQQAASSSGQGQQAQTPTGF

[2] = target: Casein kinase I isoform gamma-3 (Homo sapiens) (UniProt Q9Y6M4); experiment: Inhibition of human GST-tagged CK1gamma3 at 1 uM using alpha-casein as substrate after 30 mins in presence of [gamma-32P]-ATP by Cherenkov counting method
Casein kinase I isoform gamma-3 (Homo sapiens), sequence (Q9Y6M4 whole entry, looked up, canonical isoform): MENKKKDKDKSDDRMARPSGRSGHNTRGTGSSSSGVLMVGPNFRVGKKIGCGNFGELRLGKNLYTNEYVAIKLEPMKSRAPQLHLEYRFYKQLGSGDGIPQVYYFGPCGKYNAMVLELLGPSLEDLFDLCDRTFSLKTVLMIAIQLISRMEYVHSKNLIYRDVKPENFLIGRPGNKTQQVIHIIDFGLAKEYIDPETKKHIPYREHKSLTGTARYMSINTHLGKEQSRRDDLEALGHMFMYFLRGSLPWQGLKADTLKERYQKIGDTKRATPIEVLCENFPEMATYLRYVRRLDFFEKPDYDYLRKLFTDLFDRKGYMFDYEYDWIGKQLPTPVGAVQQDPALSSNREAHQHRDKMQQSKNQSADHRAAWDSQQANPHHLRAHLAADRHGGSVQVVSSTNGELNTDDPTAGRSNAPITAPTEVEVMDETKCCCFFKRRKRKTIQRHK

[3] = target: T2, Casein kinase I isoform delta (Rattus norvegicus, UniProt Q06486); experiment: Inhibition of full-length rat GST-tagged CK1delta using alpha-casein as substrate after 30 mins in presence of [gamma-32P]-ATP by Cherenkov counting method
T2 sequence (Q06486 whole entry, canonical isoform): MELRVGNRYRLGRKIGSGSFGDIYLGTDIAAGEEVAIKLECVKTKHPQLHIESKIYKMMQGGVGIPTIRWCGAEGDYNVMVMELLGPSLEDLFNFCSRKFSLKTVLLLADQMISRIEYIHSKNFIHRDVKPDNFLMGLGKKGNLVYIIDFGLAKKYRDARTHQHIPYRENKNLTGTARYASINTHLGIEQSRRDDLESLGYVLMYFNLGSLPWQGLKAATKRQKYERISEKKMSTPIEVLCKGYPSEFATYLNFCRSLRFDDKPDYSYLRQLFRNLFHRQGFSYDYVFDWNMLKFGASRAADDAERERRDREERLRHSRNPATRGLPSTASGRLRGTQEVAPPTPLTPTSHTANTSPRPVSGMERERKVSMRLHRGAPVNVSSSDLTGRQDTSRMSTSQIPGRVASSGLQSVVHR

[4] = target: Casein kinase I isoform delta (Rattus norvegicus, UniProt Q06486, M82F); experiment: Inhibition of rat GST-tagged CK1delta M82F mutant at 10 uM using alpha-casein as substrate after 30 mins in presence of [gamma-32P]-ATP by Cherenkov counting method
Casein kinase I isoform delta (Rattus norvegicus, UniProt Q06486, M82F), sequence (Q06486 whole entry M82F, the tested form may be a part, canonical isoform): as the sequence (Q06486 whole entry, canonical isoform) above, with M82F counted along it

[5] = target: T2, Casein kinase I isoform delta; experiment: Inhibition of rat recombinant CK1delta kinase domain using alpha-casein as substrate after 30 mins in presence of [gamma-32P]-ATP by Cherenkov counting method
[6] = target: Casein kinase I isoform epsilon (Homo sapiens, UniProt P49674); experiment: Inhibition of human recombinant CK1epsilon using alpha-casein as substrate after 30 mins in presence of [gamma-32P]-ATP by Cherenkov counting method
Casein kinase I isoform epsilon, sequence (P49674 whole entry, canonical isoform): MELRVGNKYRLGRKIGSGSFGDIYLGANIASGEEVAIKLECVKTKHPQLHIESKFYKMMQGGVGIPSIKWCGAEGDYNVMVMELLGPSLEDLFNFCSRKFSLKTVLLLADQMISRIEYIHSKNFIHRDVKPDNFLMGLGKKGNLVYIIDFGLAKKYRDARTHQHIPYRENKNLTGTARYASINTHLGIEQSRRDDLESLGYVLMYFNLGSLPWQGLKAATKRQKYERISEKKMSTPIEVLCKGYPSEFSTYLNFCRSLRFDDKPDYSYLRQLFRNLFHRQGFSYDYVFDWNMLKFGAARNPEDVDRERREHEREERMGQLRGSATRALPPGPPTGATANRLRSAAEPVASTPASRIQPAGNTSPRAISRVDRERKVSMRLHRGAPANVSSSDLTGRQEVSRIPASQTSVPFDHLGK

[7] = target: T3, Casein kinase I isoform delta (Homo sapiens, UniProt P48730); conditions: 125 uM
T3 sequence (P48730 whole entry, looked up, the tested form may be a part, canonical isoform): as the sequence (Q06486 whole entry, canonical isoform) above, with V381I counted along it

[8] = Selectivity ratio of IC50 for human CK1epsilon to IC50 for rat recombinant CK1delta kinase domain
CAPAN-1 = experiment: Antiproliferative activity against human Capan1 cells after 48 hrs by MTT assay; type: functional, cell-based; conditions: CAPAN-1, 48 h
PANC-1 = experiment: Antiproliferative activity against human PANC1 cells after 48 hrs by MTT assay; type: functional, cell-based; conditions: PANC-1, 48 h
[9] = target: T1, Casein kinase I isoform alpha (Bos taurus); experiment: Inhibition of bovine GST-tagged CK1alpha at 10 uM using alpha-casein as substrate after 30 mins in presence of [gamma-32P]-ATP by Cherenkov counting method
[10] = target: Casein kinase I isoform delta (Rattus norvegicus) (UniProt Q06486); experiment: Inhibition of rat recombinant CK1delta kinase domain at 10 uM using alpha-casein as substrate after 30 mins in presence of [gamma-32P]-ATP by Cherenkov counting method
Casein kinase I isoform delta (Rattus norvegicus), sequence (Q06486 whole entry, looked up, the tested form may be a part, canonical isoform): as the sequence (Q06486 whole entry, canonical isoform) above

[11] = Selectivity ratio of IC50 for human CK1epsilon to IC50 for full-length rat GST-tagged CK1delta
MIA PaCa-2 = experiment: Antiproliferative activity against human MIAPaCa2 cells after 48 hrs by MTT assay; type: functional, cell-based; conditions: MIA PaCa-2, 48 h
[12] = target: Casein kinase I isoform delta (Rattus norvegicus) (UniProt Q06486); experiment: Ratio of IC50 for full-length rat GST-tagged CK1delta to IC50 for rat recombinant CK1delta kinase domain
HEK293 = experiment: Antiproliferative activity against human HEK293 cells after 48 hrs by MTT assay; type: functional, cell-based; conditions: HEK293, 48 h
[13] = Antiproliferative activity against human A818-6 cells after 48 hrs by MTT assay; type: functional, cell-based
[14] = target: Casein kinase I isoform delta (Rattus norvegicus) (UniProt Q06486); experiment: Inhibition of full-length rat GST-tagged CK1delta at 10 uM using alpha-casein as substrate after 30 mins in presence of [gamma-32P]-ATP by Cherenkov counting method
SW-620 = experiment: Antiproliferative activity against human SW620 cells after 48 hrs by MTT assay; type: functional, cell-based; conditions: SW-620, 48 h
[15] = target: Casein kinase I isoform gamma-3 (Homo sapiens) (UniProt Q9Y6M4); experiment: Inhibition of human GST-tagged CK1gamma3 at 10 uM using alpha-casein as substrate after 30 mins in presence of [gamma-32P]-ATP by Cherenkov counting method
HT-29 = experiment: Antiproliferative activity against human HT-29 cells after 48 hrs by MTT assay; type: functional, cell-based; conditions: HT-29, 48 h
[16] = Antiproliferative activity against human Panc89 cells after 48 hrs by MTT assay; type: functional, cell-based
Rattus norvegicus = species: Rattus norvegicus; experiment: Selectivity ratio of IC50 for full-length rat GST-tagged CK1delta to IC50 for rat GST-tagged CK1delta M82F mutant
[17] = target: Casein kinase I isoform delta (Rattus norvegicus) (UniProt Q06486); experiment: Competitive inhibition of full-length rat GST-tagged CK1delta at IC50 using alpha-casein as substrate after 30 mins in presence of 10 to 500 uM ATP and [gamma-32P]-ATP by Cherenkov counting method
HEK-293T [18] = experiment: Upregulation of renilla luciferase expression in HEK293T cells transfected with Wnt3A-expressing vector up to 5 uM after 22 hrs by luminescence assay relative to control; type: cell-based; conditions: human
HEK-293T [19] = experiment: Upregulation of renilla luciferase expression in HEK293T cells up to 5 uM after 22 hrs in presence of Wnt3A-conditioned medium by luminescence assay relative to control; type: cell-based; conditions: human
[20] = target: T4, Protein-serine O-palmitoleoyltransferase porcupine (Homo sapiens) (UniProt Q9H237); experiment: Inhibition of porcupine in HEK293T cells transfected with Wnt3A-expressing vector assessed as suppression of Wnt/beta-catenin signaling at 5 uM after 22 hrs by Super-top flash reporter gene assay relative to control; type: cell-based
T4 sequence (whole entry): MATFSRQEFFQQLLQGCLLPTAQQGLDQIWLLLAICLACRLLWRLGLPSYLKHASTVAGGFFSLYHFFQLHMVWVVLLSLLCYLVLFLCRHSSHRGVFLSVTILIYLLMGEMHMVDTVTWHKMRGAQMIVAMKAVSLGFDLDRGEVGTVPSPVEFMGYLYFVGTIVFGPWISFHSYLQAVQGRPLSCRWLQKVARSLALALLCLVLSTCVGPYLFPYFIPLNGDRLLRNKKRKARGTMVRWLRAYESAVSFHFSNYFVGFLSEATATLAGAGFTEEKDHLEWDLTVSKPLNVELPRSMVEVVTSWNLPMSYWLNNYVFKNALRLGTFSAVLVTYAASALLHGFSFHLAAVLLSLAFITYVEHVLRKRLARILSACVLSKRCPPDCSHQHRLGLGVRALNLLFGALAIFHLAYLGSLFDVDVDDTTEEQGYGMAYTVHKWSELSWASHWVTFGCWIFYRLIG

Homo sapiens = species: Homo sapiens; experiment: Inhibition of Wnt/beta-catenin signaling in HEK293T cells after 22 hrs in presence of Wnt3A-conditioned medium by Super-top flash reporter gene assay; type: cell-based
[21] = target: T5, Protein-serine O-palmitoleoyltransferase porcupine (Homo sapiens, UniProt Q9H237); experiment: Inhibition of porcupine in HEK293T cells transfected with Wnt3A-expressing vector assessed as suppression of Wnt/beta-catenin signaling after 22 hrs by Super-top flash reporter gene assay; type: cell-based
T5 sequence (Q9H237 whole entry): T4 sequence (whole entry)

[22] = target: T6, Casein kinase I delta/epsilon (Homo sapiens) (UniProt P48730+P49674); experiment: Inhibition of CK1delta/epsilon in HEK293T cells assessed as suppression of Wnt/beta-catenin signaling up to 0.1 uM after 22 hrs in presence of Wnt3A-conditioned medium by Super-top flash reporter gene assay; type: cell-based
T6 sequence (P48730 whole entry, looked up): as the sequence (Q06486 whole entry, canonical isoform) above, with V381I counted along it
T6 sequence (P49674 whole entry, looked up): as the sequence (P49674 whole entry, canonical isoform) above

[23] = target: T6, Casein kinase I delta/epsilon (Homo sapiens); experiment: Inhibition of CK1delta/epsilon in HEK293T cells transfected with Wnt3A-expressing vector assessed as suppression of Wnt/beta-catenin signaling up to 0.1 uM after 22 hrs by Super-top flash reporter gene assay; type: cell-based
[24] = target: Casein kinase I isoform delta (Rattus norvegicus) (UniProt Q06486); experiment: Inhibition of full-length rat GST-tagged CK1delta assessed as residual activity at 10 uM using alpha-casein as substrate after 30 mins in presence of [gamma-32P]-ATP by Cherenkov counting method
[25] = target: Casein kinase I isoform delta (Rattus norvegicus) (UniProt Q06486); experiment: Inhibition of rat recombinant CK1delta kinase domain assessed as residual activity at 10 uM using alpha-casein as substrate after 30 mins in presence of [gamma-32P]-ATP by Cherenkov counting method
[26] = target: T3, Casein kinase I isoform delta; experiment: Inhibition of CK1delta isolated from human PANC1 cells at 5 uM using GST-tagged p53 (1 to 64 residues) as substrate after 30 mins in presence of [gamma-32P]-ATP by Cherenkov counting method

## O=C(CSc1nc2c(c(=O)n1Cc1ccccc1)SCC2)Nc1nc2ccc(C(F)(F)F)cc2s1
[1]
  inhibition: Active
[2]
  inhibition: Active
[3]
  pIC50: 5.97
[4]
  pIC50: 6.57
[5]
  pIC50: 6.28
[6]
  pIC50: 5.85

## Nc1nccc(-c2c(-c3ccc(F)cc3)ncn2C2CCCCC2)n1
[7]
  inhibition: 40%

## Cc1ccc2nc(NC(=O)CSc3nc4c(c(=O)n3-c3ccc(F)cc3)SCC4)sc2c1
[8]
  Ratio IC50: < 17
CAPAN-1
  pEC50: < 5.00
PANC-1
  pEC50: 5.31
[9]
  inhibition: inactive
[10]
  inhibition: Active
[3]
  pIC50: 5.72
[11]
  Ratio IC50: 4 to 7
MIA PaCa-2
  pEC50: 5.27
[12]
  Ratio IC50: 4
HEK293
  pEC50: 5.46
[4]
  pIC50: 6.82
[5]
  pIC50: 6.26
[13]
  pEC50: < 5.00
[14]
  inhibition: Active
SW-620
  pEC50: 5.06
[6]
  pIC50: < 5.00
[15]
  inhibition: Active
HT-29
  pEC50: < 5.00
[16]
  pEC50: 5.29

## Cc1ccc2nc(NC(=O)CSc3nc4c(c(=O)n3Cc3ccccc3)SCC4)sc2c1
[8]
  Ratio IC50: < 17
CAPAN-1
  pEC50: < 5.00
PANC-1
  pEC50: < 5.00
[9]
  inhibition: inactive
[10]
  inhibition: Active
[3]
  pIC50: 5.78
[11]
  Ratio IC50: 4 to 7
MIA PaCa-2
  pEC50: 5.25
[12]
  Ratio IC50: 4
HEK293
  pEC50: < 5.00
[4]
  pIC50: 7.22
[5]
  pIC50: 6.38
[13]
  pEC50: < 5.00
[14]
  inhibition: Active
SW-620
  pEC50: 5.07
[6]
  pIC50: 5.13
Rattus norvegicus
  Ratio IC50: 28
[15]
  inhibition: Active
HT-29
  pEC50: < 5.00
[16]
  pEC50: 5.51
[17]
  inhibition: Active

## COc1cccc(Cn2c(SCC(=O)Nc3nc4ccc(C(F)(F)F)cc4s3)nc3c(c2=O)SCC3)c1OC
[1]
  inhibition: Active
[2]
  inhibition: Active
[3]
  pIC50: 6.12
[4]
  pIC50: 6.68
[5]
  pIC50: 6.64
[6]
  pIC50: 5.91

## O=C(CSc1nc2c(c(=O)n1Cc1ccc(OC(F)(F)F)cc1)SCC2)Nc1nc2ccc(C(F)(F)F)cc2s1
[1]
  inhibition: Active
[2]
  inhibition: Active
[3]
  pIC50: 6.15

## O=C(CSc1nc2c(c(=O)n1Cc1ccc(C(F)(F)F)cc1)SCC2)Nc1nc2ccc(C(F)(F)F)cc2s1
[1]
  inhibition: Active
[2]
  inhibition: Active
[3]
  pIC50: 6.48

## O=C(CSc1nc2c(c(=O)n1Cc1cccc(C(F)(F)F)c1)SCC2)Nc1nc2ccc(C(F)(F)F)cc2s1
[1]
  inhibition: Active
[2]
  inhibition: Active
[3]
  pIC50: 5.99

## Cc1cc(-c2ccc(CC(=O)Nc3ccc(-c4cccnc4)cc3)cc2)ccn1
HEK-293T [18]
  fold change (FC): <= 1.3
HEK-293T [19]
  fold change (FC): <= 1.5
[20]
  Imax: 1.1%
Homo sapiens
  inhibition: inactive
[21]
  pIC50: > 9.00

## Fc1cccc(-n2cnc3c(NCc4nc5c(F)c(F)ccc5[nH]4)nc(N4CCOCC4)nc32)c1
[22]
  inhibition: Dose-dependent effect
[23]
  inhibition: Dose-dependent effect

## COc1ccccc1-n1c(SCC(=O)Nc2nc3ccc(C)cc3s2)nc2c(c1=O)SCC2
[8]
  Ratio IC50: < 17
CAPAN-1
  pEC50: 6.64
PANC-1
  pEC50: 6.64
[24]
  Activity: 25%
[3]
  pIC50: 5.97
[11]
  Ratio IC50: 4 to 7
MIA PaCa-2
  pEC50: 6.64
HEK293
  pEC50: 6.55
[4]
  pIC50: 6.85
[5]
  pIC50: 5.99
[13]
  pEC50: 6.03
SW-620
  pEC50: 6.64
[6]
  pIC50: 5.15
[25]
  Activity: 22%
HT-29
  pEC50: 6.47
[16]
  pEC50: 6.24

## COc1cc(OC)c(/C=C2/C(=O)Nc3ccccc32)c(OC)c1
[26]
  inhibition: 40%

## O=C(CSc1nc2c(c(=O)n1-c1ccccc1)SCC2)Nc1nc2ccc(C(F)(F)F)cc2s1
[1]
  inhibition: Active
[2]
  inhibition: Active
[3]
  pIC50: 6.18
[4]
  pIC50: 6.68
[5]
  pIC50: 6.40
[6]
  pIC50: 5.39
